# Laboratory results reported in PubChem BioAssay AID2050 (NMMLSC, 2009).
# The source made the active and inactive calls.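 How the source made its calls: active means EC50 at or below 30 µM together with a response span of at least a set limit; inactive means the rest.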
# Target: GTPase HRas (Homo sapiens) (UniProt P01112)
# Assay: activated Ras mutant GTP-binding inhibitors, SAR follow-up, biochemical, pyrazoline analogs, multiplex bead flow cytometry (AID 2050)
# Settings: GST-Ras beads, Bodipy-FL-GTP binding
# Sequence of GTPase HRas (Homo sapiens) (P01112 whole entry, looked up): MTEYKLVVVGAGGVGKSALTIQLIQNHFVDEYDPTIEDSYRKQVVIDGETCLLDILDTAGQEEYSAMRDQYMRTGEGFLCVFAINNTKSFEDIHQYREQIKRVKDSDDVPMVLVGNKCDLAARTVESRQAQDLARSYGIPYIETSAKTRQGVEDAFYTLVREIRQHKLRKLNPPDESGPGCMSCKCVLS
row,SMILES,EC50
1,Cc1ccccc1C1CC(c2ccccc2)=NN1c1ccc(S(N)(=O)=O)cc1 (configuration not stated),> 30 µM (inactive)
2,COc1ccccc1N1N=C(c2ccccc2)CC1c1ccccc1 (configuration not stated),> 30 µM (inactive)
3,COc1ccc(C2CC(c3ccc(Br)cc3)=NN2c2ccc(S(N)(=O)=O)cc2)cc1 (configuration not stated),> 30 µM (inactive)
4,COc1ccc(C2CC(c3cccc(C)c3)=NN2c2ccc(S(N)(=O)=O)cc2)cc1 (configuration not stated),> 30 µM (inactive)
5,COc1ccc(C2CC(c3ccc(F)cc3)=NN2c2cc(Cl)ccc2Cl)cc1 (configuration not stated),> 30 µM (inactive)
6,COc1ccc(C2=NN(c3ccc(Cl)c(Cl)c3)C(c3ccc(OC)cc3)C2)cc1 (configuration not stated),> 30 µM (inactive)
7,COc1ccc(C2CC(c3ccccc3Cl)=NN2c2ccc(S(N)(=O)=O)cc2)cc1 (configuration not stated),> 30 µM (inactive)
8,CC(=O)Oc1ccc(C2=NN(c3ccccc3)C(c3ccccc3)C2)cc1 (configuration not stated),> 30 µM (inactive)
9,COc1ccc(C2CC(c3ccccc3)=NN2c2ccc(S(N)(=O)=O)cc2)cc1OC (configuration not stated),> 30 µM (inactive)
10,NS(=O)(=O)c1ccc(N2N=C(c3ccc(Cl)cc3)CC2c2ccccc2)cc1 (configuration not stated),inactive
11,COc1ccc(C2CC(c3cccnc3)=NN2c2ccc(S(N)(=O)=O)cc2)cc1 (configuration not stated),> 30 µM (inactive)
12,COc1ccc(C2CC(c3cccc(OC)c3)=NN2c2ccc(S(N)(=O)=O)cc2)cc1 (configuration not stated),> 30 µM (inactive)
13,COc1ccc(C2CC(c3ccccc3C(F)(F)F)=NN2c2ccc(S(N)(=O)=O)cc2)cc1 (configuration not stated),> 30 µM (inactive)
14,COc1ccc(C2CC(c3ccccc3)=NN2c2ccc([N+](=O)[O-])cc2)cc1 (configuration not stated),> 30 µM (inactive)
15,COc1ccc(C2CC(c3cccc(Br)c3)=NN2c2ccc(S(N)(=O)=O)cc2)cc1 (configuration not stated),> 30 µM (inactive)
16,CN(C)c1ccc(C2CC(c3ccccc3)=NN2c2ccccc2)cc1 (configuration not stated),> 30 µM (inactive)
17,COc1ccc(C2CC(c3ccccc3)=NN2c2ccc(Cl)c(C(=O)O)c2)cc1 (configuration not stated),> 30 µM (inactive)
18,NS(=O)(=O)c1ccc(N2N=C(c3ccccc3)CC2c2ccccc2Br)cc1 (configuration not stated),> 30 µM (inactive)
19,O=[N+]([O-])c1cccc(C2CC(c3ccccc3)=NN2c2ccccc2)c1 (configuration not stated),> 30 µM (inactive)
20,CN(C)c1ccc(C2CC(c3ccccc3)=NN2c2ccc([N+](=O)[O-])cc2)cc1 (configuration not stated),> 30 µM (inactive)
21,COc1ccc(C2CC(c3cccc(N(C)C)c3)=NN2c2ccc(S(N)(=O)=O)cc2)cc1 (configuration not stated),> 30 µM (inactive)
22,COc1ccc(C2CC(c3ccncc3)=NN2c2ccc(S(N)(=O)=O)cc2)cc1 (configuration not stated),> 30 µM (inactive)

row,SMILES,EC50
1,COc1ccc(C2=NN(c3cccc(F)c3)C(c3ccc(Cl)cc3)C2)cc1 (configuration not stated),> 30 µM (inactive)
2,COc1ccc(C2=NN(c3cccc(F)c3)C(c3ccc(OC)cc3)C2)cc1 (configuration not stated),> 30 µM (inactive)
3,Cc1onc(-c2ccccc2)c1-c1ccc(S(N)(=O)=O)cc1,> 30 µM (inactive)
4,Clc1ccc(N2N=C(c3ccccc3)CC2c2ccccc2)cc1 (configuration not stated),> 30 µM (inactive)
5,COc1ccc(C2CC(c3ccc(C(F)(F)F)cc3)=NN2c2ccc(S(N)(=O)=O)cc2)cc1 (configuration not stated),> 30 µM (inactive)
6,COc1ccc(C2CC(c3ccccc3)=NN2c2cccc(S(N)(=O)=O)c2)cc1 (configuration not stated),> 30 µM (inactive)
7,Fc1ccccc1C1CC(c2ccc(Br)cc2)=NN1c1ccc(Br)cc1 (configuration not stated),> 30 µM (inactive)
8,O=S(=O)(c1ccc(N2N=C(c3ccc(Br)cc3)CC2c2ccccc2)cc1)C(F)F (configuration not stated),inactive
9,NS(=O)(=O)c1ccc(N2N=C(c3ccccc3)CC2c2cccc(Br)c2)cc1 (configuration not stated),> 30 µM (inactive)
10,COc1ccc(C2CC(C3CCCCC3)=NN2c2ccc(S(N)(=O)=O)cc2)cc1 (configuration not stated),> 30 µM (inactive)
11,COc1ccc(C2CC(c3ccc(Br)cc3)=NN2c2ccccc2Cl)cc1 (configuration not stated),> 30 µM (inactive)
12,Cc1cccc(C2CC(c3ccccc3)=NN2c2ccc(S(N)(=O)=O)cc2)c1 (configuration not stated),> 30 µM (inactive)
13,O=S(=O)(O)c1ccc(N2N=C(c3ccccc3)CC2c2ccccc2)cc1 (configuration not stated),> 30 µM (inactive)
14,O=[N+]([O-])c1cccc(C2CC(c3ccc(F)cc3)=NN2c2ccccc2)c1 (configuration not stated),> 30 µM (inactive)
15,CCc1ccc(C2=NN(c3ccc(S(N)(=O)=O)cc3)C(c3ccc(F)cc3)C2)cc1 (configuration not stated),> 30 µM (inactive)
16,COc1ccc(C2=NN(c3ccc(Cl)cc3)C(c3ccccc3F)C2)cc1 (configuration not stated),> 30 µM (inactive)
17,COc1ccc(C2=NN(c3ccc(S(N)(=O)=O)cc3)C(c3ccc(OC)cc3)C2)cc1 (configuration not stated),> 30 µM (inactive)
18,NS(=O)(=O)c1ccc(N2N=C(c3ccccc3)CC2c2ccccc2)cc1 (configuration not stated),> 30 µM (inactive)
19,NS(=O)(=O)c1ccc(N2N=C(c3ccc(Br)cc3)CC2c2ccc(F)cc2)cc1 (configuration not stated),> 30 µM (inactive)
20,COc1ccc(C2CC(c3ccc(N(C)C)cc3)=NN2c2ccc(S(N)(=O)=O)cc2)cc1 (configuration not stated),> 30 µM (inactive)
21,COc1ccc(C2=NN(c3ccccc3)C(c3ccccc3C(F)(F)F)C2)cc1 (configuration not stated),inactive

# Same assay, conditions: GST-Ras beads, Bodipy-FL-GTP binding, measured here: Ki calculated from EC50
row,SMILES,Ki [µM]
1,COc1ccc(C2=NN(c3ccccc3)C(c3ccc(Cl)cc3)C2)cc1 (configuration not stated),0.24
2,NS(=O)(=O)c1ccc(N2N=C(c3ccc(Cl)cc3)CC2c2ccccc2)cc1 (configuration not stated),0.01
3,O=S(=O)(c1ccc(N2N=C(c3ccc(Br)cc3)CC2c2ccccc2)cc1)C(F)F (configuration not stated),0.18
4,COc1ccc(C2=NN(c3ccccc3)C(c3ccccc3C(F)(F)F)C2)cc1 (configuration not stated),1.19
